From US20040224884A1, “Methods of screening for apoptosis-controlling agents for bone anabolic therapies and uses thereof” (priority 1998, published 2004)

Experiments:
wild type HeLa cells = assay: Etoposide-induced apoptosis in wild type HeLa cells; type: cell-based, human; conditions: 10^−8 M, 1 h; etoposide 5×10^−5 M, 6 hour
From the text: (§1) CMV promoter alone and CMV promoter-driven cDNA for mERα or mErβ were stably transfected into HeLa cells. […] Cells were trypsinized, pelleted and trypan blue positive cells enumerated.
(§2) In this experiment, instead of calvaria cells, human HeLa cells which contain undetectable, if any, estrogen receptor were used. HeLa cells were stably transfected with either a CMV promoter-driven cDNA for the murine estrogen receptor-alpha (mERα) or a CMV promoter-driven cDNA for the murine estrogen receptor-beta (mERβ). […] Cells were trypsinized, pelleted and trypan blue positive cells were enumerated.

[1] = target: T1, murine estrogen receptor-alpha (mERα) (Mus musculus, UniProt P19785); assay: Etoposide-induced apoptosis in HeLa cells stably transfected with mERα; type: cell-based, human; conditions: 10^−8 M, 1 h; etoposide 5×10^−5 M, 6 hour
T1 construct: expressed in transfected cells
T1 sequence (P19785 1-599): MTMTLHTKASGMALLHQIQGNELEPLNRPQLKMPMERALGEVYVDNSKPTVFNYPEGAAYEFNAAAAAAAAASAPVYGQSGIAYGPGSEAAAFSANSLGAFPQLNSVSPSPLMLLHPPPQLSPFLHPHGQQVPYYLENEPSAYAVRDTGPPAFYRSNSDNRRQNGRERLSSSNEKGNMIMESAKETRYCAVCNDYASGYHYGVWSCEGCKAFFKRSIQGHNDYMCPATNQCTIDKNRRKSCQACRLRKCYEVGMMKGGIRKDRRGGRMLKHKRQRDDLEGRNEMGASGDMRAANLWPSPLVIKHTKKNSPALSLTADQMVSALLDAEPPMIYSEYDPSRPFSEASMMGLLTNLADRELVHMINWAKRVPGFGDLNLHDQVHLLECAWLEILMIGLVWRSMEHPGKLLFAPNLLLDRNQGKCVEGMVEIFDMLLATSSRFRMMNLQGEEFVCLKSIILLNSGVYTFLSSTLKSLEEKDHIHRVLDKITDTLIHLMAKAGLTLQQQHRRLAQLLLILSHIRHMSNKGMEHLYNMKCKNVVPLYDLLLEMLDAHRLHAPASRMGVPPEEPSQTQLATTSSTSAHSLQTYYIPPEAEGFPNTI
From the text: as §1, §2

human ERα = target: T2, human ERα (Homo sapiens, UniProt P03372); assay: ERE-luciferase reporter in 293 cells overexpressing hERα; type: cell-based; conditions: 3 copies of ERE driving luciferase
T2 construct: expressed in transfected cells; host or cells: 293 human embryonic kidney cells
T2 sequence (P03372 1-595): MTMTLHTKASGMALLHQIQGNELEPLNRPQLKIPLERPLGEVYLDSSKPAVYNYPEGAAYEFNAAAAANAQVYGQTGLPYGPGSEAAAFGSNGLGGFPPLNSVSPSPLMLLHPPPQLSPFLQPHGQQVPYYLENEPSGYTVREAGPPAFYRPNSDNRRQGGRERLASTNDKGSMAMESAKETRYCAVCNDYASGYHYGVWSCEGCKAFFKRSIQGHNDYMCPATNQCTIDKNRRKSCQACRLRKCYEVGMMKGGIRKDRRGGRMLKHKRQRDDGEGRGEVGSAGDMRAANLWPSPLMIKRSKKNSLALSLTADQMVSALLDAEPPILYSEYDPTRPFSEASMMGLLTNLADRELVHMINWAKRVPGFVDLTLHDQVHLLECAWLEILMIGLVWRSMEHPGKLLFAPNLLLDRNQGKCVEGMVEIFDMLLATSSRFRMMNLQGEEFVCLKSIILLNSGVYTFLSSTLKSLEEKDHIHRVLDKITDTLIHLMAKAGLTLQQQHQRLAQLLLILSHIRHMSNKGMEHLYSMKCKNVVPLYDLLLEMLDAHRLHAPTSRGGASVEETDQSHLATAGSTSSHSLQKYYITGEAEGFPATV
From the text: The human ERα was overexpressed in 293 cells lacking ERα along with a reporter construct containing 3 copies of a n estrogen response element driving the luciferase gene. Light units were counted and normalized to coexpressed b-galactosidase activity to control for differences in transfection efficiency. Results represent percent stimulation compared to ERα transfected cells, but not treated with the two agents. Each bar represents mean of duplicate experiments +/−SEM. *p<0.001 vs. cells not exposed to the sterols.
In this experiment, hERα was overexpressed in 293 cells (which lack constitutive ERα) along with a reporter construct containing 3 copies of an estrogen response element driving the luciferase gene. Light units were counted and normalized to coexpressed β-galactosidase activity to control for differences in transfection efficiency.

[2] = Vertebral compression strength of fifth lumbar vertebrae (L5); type: in vivo, mice; conditions: 2000 ng/g body weight for 28 days
Method: In a representative experiment of this sort, seven 4-5 month old female mice per group-are screened twice for BMD in a four week period immediately prior to the initiation of the experiment to establish that peak adult bone mass has been attained. A subset of mice are then ovariectomized. Intact and ovariectomized mice are treated with vehicle, or 20, 200 or 2000 ng/g body weight estratriene-3-ol or another ANGEL compound. […] Ultimate load bearing properties of the fifth lumbar murine vertebrae (L5) is determined. This is done using a servohydraulic axial-torsional material testing machine (Model MTS 810 Bionx; MTS Systems Corp., Eden Prairie, Minn.) and a Lebow load cell (Eaton Products, Troy, Mich.). Data are recorded and analyzed using the LabVIEW software package and an acquisition/signal conditioning board (Model NB-MIO-16, National Instruments Corporation, Austin, Tex.). The L5 specimens that is used for ultimate load bearing is cleaned of surrounding soft tissue and the length and diameter recorded with a digital caliper at a resolution of 0.01 mm (Mitutoyo Model #500-196, Ace Tools, Ft. Smith, Ariz.). […] Vertebrae are individually compressed between parallel loading platens along the cephalocaudad axis until failure and the ultimate load (in Newtons) and displacement (in mm) are recorded. […]

MLO-Y4 osteocytic cells = assay: Etoposide-induced apoptosis of MLO-Y4 osteocytic cells, trypan blue uptake; type: cell-based, murine
Method: Cells were pretreated with the indicated concentrations of the compounds for 1 hour before the addition of the pro-apoptotic agent etoposide. Apoptosis was determined after 6 hour by trypan blue uptake as described in FIG. 3. * indicates p<0.05 versus etoposide alone, by ANOVA (Student-Newman-Keuls method).
MLO-Y4 cells were pretreated for 1 hour with the pure receptor antagonist ICI182,780 (10^−7 M) before the addition of the test agents (10^−8 M). Apoptosis was induced and quantified as described in FIG. 3. * indicates p<0.05 versus etoposide alone, by ANOVA (Student-Newman-Keuls method).
In this experiment, MLO-Y4 cells were pretreated with the indicated concentrations of the various compounds for 1 h before the addition of the pro-apoptotic agent, etoposide. Apoptosis was determined after 6 h by trypan blue uptake as described in FIG. 3.

In the case of `C[C@@]12CCC[C@H]1[C@@H]1CCc3cc(O)ccc3[C@H]1CC2` [estratriene-3-ol], the “effect on etoposide-induced apoptosis of wild type HeLa cells” value (wild type HeLa cells) is reported as “none of the three compounds had any effect”, the “inhibition of etoposide-induced apoptosis in HeLa cells transfected with estrogen receptor α” value [1] is reported as “potently inhibited” and the “transactivation of an estrogen response element through estrogen receptor α” value (human ERα) is reported as “did not transactivate”. The “Vertebral Compression” value ([2]; Ovx mice, p < 0.00001) was 85.57 ± 10.17 Newtons, the “Vertebral Compression” value ([2]; intact mice, p < 0.006) was 96.26 ± 15.92 Newtons and the “antiapoptotic effect on osteocytes after pretreatment with ICI182,780” value (MLO-Y4 osteocytic cells; ICI182,780 10^−7 M, 1 h pretreatment) was “abrogated”. For the same compound, the “inhibition of etoposide-induced apoptosis of osteocytic cell line” value (MLO-Y4 osteocytic cells; MLO-Y4, pretreated 1 h before etoposide, apoptosis after 6 h) was “dose-dependently inhibited”.
